# Assay results from US20260355192A1, “PROPHYLACTIC OR THERAPEUTIC AGENT FOR PERIOSTIN-MEDIATED DISEASE AND PRURITUS ASSOCIATED THEREWITH” (SAGA UNIVERSITY, priority 2022, published 2026).
# How the values were obtained:
# [1] = test system: scratching behaviors in FADS mice; assay: Scratching behaviors in FADS mice upon repeated systemic administration of CP4715; format: in vivo, mouse (FADS, Nestin-cre/Ikk2ff); settings: at 1 week and 2 weeks after administration; 107.4 μmol/kg twice a day under the dorsal skin; Mann-Whitney's U-test vs diluent control; FIG. 1
# Text: (§1) Nestin-cre transgenic mice were crossed with IKK2^ff mice to prepare Nestin-cre/Ikk2^ff mice specifically lacking IKK2 in their facial skin fibroblasts (Nunomura S, et al. J Invest Dermatol. 139:1274-1283, 2019). These mice inevitably develop atopic dermatitis-like rash limited to the face and intense itchy symptoms, and were therefore designated as Facial Atopic Dermatitis with Scratching (FADS) mice. […] For evaluation of the prophylactic or therapeutic agent of the present invention, FADS mice at 3 to 4 weeks of age or older were used because of showing spontaneous scratching behaviors. It should be noted that in this Example section, the above compound of formula (I) (more particularly “CP4715”) was used as the prophylactic or therapeutic agent of the present invention.
# FADS mice were acclimated for 20 minutes to the environment of a recording cage, and then recorded with a video camera. The recorded videos were replayed, and scratching behaviors were counted assuming that hind paw scratching to the face and the subsequent movement of toe licking or paw lowering to the ground were regarded as one cycle of scratching behavior. […]
# At 1 week and 2 weeks after drug administration, the mice were recorded for 60 minutes and analyzed to calculate the number of scratchings per minute for evaluation. […]
# [2] = test system: scratching behaviors in FADS mice; assay: Scratching behaviors in FADS mice upon single systemic administration of CP4715; format: in vivo, mouse (FADS, Nestin-cre/Ikk2ff); settings: 53.7 μmol/kg i.p., FIG. 2
# Text: Nestin-cre transgenic mice were crossed with IKK2^ff mice to prepare Nestin-cre/Ikk2^ff mice specifically lacking IKK2 in their facial skin fibroblasts (Nunomura S, et al. J Invest Dermatol. 139:1274-1283, 2019). These mice inevitably develop atopic dermatitis-like rash limited to the face and intense itchy symptoms, and were therefore designated as Facial Atopic Dermatitis with Scratching (FADS) mice. […] For evaluation of the prophylactic or therapeutic agent of the present invention, FADS mice at 3 to 4 weeks of age or older were used because of showing spontaneous scratching behaviors. […]
# (§2) FADS mice were acclimated for 20 minutes to the environment of a recording cage, and then recorded with a video camera. The recorded videos were replayed, and scratching behaviors were counted assuming that hind paw scratching to the face and the subsequent movement of toe licking or paw lowering to the ground were regarded as one cycle of scratching behavior.
# Prior to CP4715 administration, FADS mice were recorded for 60 minutes and then allowed to rest for 30 minutes. […] Mice administered with 0.3 mL of PBS containing an equal amount of the diluent as calculated based on the body weight were used as a control group.
# The mice were recorded for 80 minutes immediately after drug administration. […]
# [3] = test system: neurons in the posterior horn surface of the spinal cord; assay: In vivo extracellular recording from the posterior horn surface of the spinal cord in FADS mice (spontaneous firing); set-up: species or system mouse (FADS); settings: 53.7 μmol/kg i.p.; FIG. 3
# Description: In Vivo Extracellular Recording from the Posterior Horn Surface of the Spinal Cord in FADS Mice
# FADS mice were administered intraperitoneally with 1.5 g/kg of urethane and anesthetized, followed by dorsal lumbar laminectomy. The first to sixth lumbar vertebrae were exposed, and each mouse was set on a stereotaxic apparatus. Under a microscope, the dural, arachnoidal and pial membranes were removed, and the spinal cord surface was warmed at 36±1 °C, followed by perfusion at 15 to 20 mL/min with an artificial cerebrospinal fluid (composition: NaCl (117 mM), KCl (3.6 mM), CaCl2) (2.5 mM), MgCl2 (1.2 mM), NaH2PO4 (1.2 mM), glucose (11 mM), NaHCO3 (25 mM)) saturated with 95% 02 to 5% CO2. Into the exposed spinal cord, a tungsten electrode (tip diameter: […], tip impedance: 9 to 12 MΩ) was inserted (latero-medial), and records were obtained from neurons in the posterior horn surface of the spinal cord.
# CP4715 was dissolved at 89.5 mM in a diluent (physiological saline containing 50% DMSO and 89.5 mM hydrochloric acid), from which an amount corresponding to 53.7 μmol/kg per mouse was then taken and diluted with 0.3 mL of physiological saline, and then administered intraperitoneally (i.p.). 0.3 mL of physiological saline containing an equal amount of the diluent as calculated based on the body weight was administered as a control. When recorded from the spinal cord posterior horn of the FADS mice, neurons with spontaneous firing could be recorded. When the above control solution was first administered intraperitoneally, there was little change in the frequency of spontaneous firing during 30 minutes after administration.
# [4] = test system: scratching behaviors in FADS mice; assay: Scratching behaviors in FADS mice upon repeated percutaneous administration of CP4715; format: in vivo, mouse (FADS, Nestin-cre/Ikk2ff); settings: 30 μL of 26.85 mM solution externally applied once a day for 28 days to facial rash lesions; FIG. 7
# Text: as §1, §2
# CP4715 was dissolved in a diluent (5% DMSO/15% N-methyl-2-pyrrolidone/80% ethanol) to prepare a 26.85 mM solution. […] Before administration and on Days 3, 7, 14, 21 and 28 of administration, the number of scratchings during 60 minutes was counted for evaluation.
# [5] = test system: αvβ3 integrin; settings: cited from earlier work
structure (smiles),measurement,setting,value
"COc1cc(C(=O)NC[C@H](NS(=O)(=O)c2ccccc2)C(=O)O)ccc1N1CCC(NC2=NCCCN2)CC1 [CP4715, (S)-3-(3-methoxy-4-(4-((1,4,5,6-tetrahydropyrimidin-2-yl)amino)piperidin-1-yl)benzamido)-2-(phenylsulfonamido)propanoic acid]",scratching behaviors (number of scratchings per minute),[1],significantly suppressed (P<0.05)
same,time after administration until which the suppressive effect on scratching was sustained,[2],60 min
same,scratching behaviors (number of scratchings per minute),"[2]; at 20 minutes or later after administration, Mann-Whitney's U-test vs diluent control",significantly suppressed (P<0.05)
same,time after administration at which firing returned to the initial frequency,[3],60 min
same,time after administration at which the frequency of firing started to decrease,[3],20 min
same,time after administration at which the frequency of firing was most strongly suppressed,[3],40 min
same,time-dependent enhancement of scratching behaviors,[4],suppressed
same,antagonistic effect on αvβ3 integrin,[5],antagonistic effect
